Reference: ChEMBL document CHEMBL1201862, “PubChem BioAssay data set” (2004)
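All cell lines were grown in 96-well plates and treated with compound for 48 hours. GI50 marks 50% less growth.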 Active and inactive are the calls of the source. Rule as the data show it: active = GI50 up to about 1.1 µM and inactive = higher.

Columns and labels:
Test in all cases: growth of human tumour cells (NCI), 48 h
NCI-H460 = test system: NCI-H460
PC-3 = test system: PC-3
BT-549 = test system: BT-549
MDA-N = test system: MDA-N
SK-MEL-5 = test system: SK-MEL-5
MDA-MB-231 = test system: MDA-MB-231
CAKI-1 = test system: CAKI-1
SN12C = test system: SN12C
UO-31 = test system: UO-31
IGROV-1 = test system: IGROV-1
TK-10 = test system: TK-10
SW-620 = test system: SW-620
SNB-75 = test system: SNB-75
SR = test system: SR
MDA-MB-435 = test system: MDA-MB-435
HCC 2998 = test system: HCC 2998
Hs-578T = test system: Hs-578T
HL-60 = test system: HL-60
ACHN = test system: ACHN
M14 = test system: M14
SF-295 = test system: SF-295
U-251 = test system: U-251
RXF 393 = test system: RXF 393
KM12 = test system: KM12
786-0 = test system: 786-0
HCT-116 = test system: HCT-116
SNB-19 = test system: SNB-19
OVCAR-5 = test system: OVCAR-5
UACC-257 = test system: UACC-257
HOP-62 = test system: HOP-62
K562 = test system: K562
RPMI-8226 = test system: RPMI-8226
Malme-3M = test system: Malme-3M
NCI/ADR-RES = test system: NCI/ADR-RES
UACC-62 = test system: UACC-62
DU-145 = test system: DU-145
COLO 205 = test system: COLO 205
T47D = test system: T47D
SK-OV-3 = test system: SK-OV-3
NCI-H23 = test system: NCI-H23
OVCAR-8 = test system: OVCAR-8
SF-268 = test system: SF-268
LOX IMVI = test system: LOX IMVI
MCF7 = test system: MCF7
A498 = test system: A498
EKVX = test system: EKVX
SK-MEL-2 = test system: SK-MEL-2
A549 = test system: A549
OVCAR-3 = test system: OVCAR-3
HCT-15 = test system: HCT-15
NCI-H522 = test system: NCI-H522
CCRF-CEM = test system: CCRF-CEM
HOP-92 = test system: HOP-92
MOLT-4 = test system: MOLT-4
SK-MEL-28 = test system: SK-MEL-28
HT-29 = test system: HT-29
SF-539 = test system: SF-539
OVCAR-4 = test system: OVCAR-4
NCI-H226 = test system: NCI-H226

COC(=O)C1(C)CCc2c(ccc3ccccc23)C1=O (stereo not given)
GI50 (NCI-H460): 40.5 µM (inactive)
GI50 (PC-3): 40.9 µM (inactive)
GI50 (BT-549): 27.1 µM (inactive)
GI50 (MDA-N): 27 µM (inactive)
GI50 (SK-MEL-5): 18.3 µM (inactive)
GI50 (MDA-MB-231): 49.1 µM (inactive)
GI50 (CAKI-1): 16.1 µM (inactive)
GI50 (SN12C): 44.7 µM (inactive)
GI50 (UO-31): 33.3 µM (inactive)
GI50 (IGROV-1): 26.5 µM (inactive)
GI50 (TK-10): 31 µM (inactive)
GI50 (SW-620): 39 µM (inactive)
GI50 (SNB-75): 44.8 µM (inactive)
GI50 (SR): 39.4 µM (inactive)
GI50 (MDA-MB-435): 34.4 µM (inactive)
GI50 (HCC 2998): 36.1 µM (inactive)
GI50 (Hs-578T): 47.2 µM (inactive)
GI50 (HL-60): 35.9 µM (inactive)
GI50 (ACHN): 55.1 µM (inactive)
GI50 (M14): 29.9 µM (inactive)
GI50 (SF-295): 39.7 µM (inactive)
GI50 (U-251): 46.5 µM (inactive)
GI50 (RXF 393): 25 µM (inactive)
GI50 (KM12): 25.8 µM (inactive)
GI50 (786-0): 65 µM (inactive)
GI50 (HCT-116): 33.7 µM (inactive)
GI50 (SNB-19): 45.2 µM (inactive)
GI50 (OVCAR-5): > 100 µM (inactive)
GI50 (UACC-257): 24.5 µM (inactive)
GI50 (HOP-62): 78.7 µM (inactive)
GI50 (K562): 52.4 µM (inactive)
GI50 (RPMI-8226): 23.2 µM (inactive)
GI50 (Malme-3M): 27.8 µM (inactive)
GI50 (NCI/ADR-RES): 34.8 µM (inactive)
GI50 (UACC-62): 32.4 µM (inactive)
GI50 (DU-145): 51.9 µM (inactive)
GI50 (COLO 205): 21.3 µM (inactive)
GI50 (T47D): 24.5 µM (inactive)
GI50 (SK-OV-3): 71.1 µM (inactive)
GI50 (NCI-H23): 51.6 µM (inactive)
GI50 (OVCAR-8): 40.1 µM (inactive)
GI50 (SF-268): 32.1 µM (inactive)
GI50 (LOX IMVI): 36.1 µM (inactive)
GI50 (MCF7): 30.6 µM (inactive)
GI50 (A498): 32.7 µM (inactive)
GI50 (EKVX): 31.8 µM (inactive)
GI50 (SK-MEL-2): 26.8 µM (inactive)
GI50 (A549): 39.3 µM (inactive)
GI50 (OVCAR-3): 30.1 µM (inactive)
GI50 (HCT-15): 34.5 µM
GI50 (NCI-H522): 24.9 µM (inactive)
GI50 (CCRF-CEM): 37.3 µM (inactive)
GI50 (HOP-92): 45.4 µM (inactive)
GI50 (MOLT-4): 34.8 µM (inactive)
GI50 (SK-MEL-28): 64.7 µM (inactive)
GI50 (HT-29): 40.2 µM (inactive)
GI50 (SF-539): 86.7 µM (inactive)

Oc1ccccc1C(Sc1nc2ccccc2s1)Sc1nc2ccccc2s1
GI50 (NCI-H460): > 100 µM (inactive)
GI50 (PC-3): 67.1 µM (inactive)
GI50 (BT-549): 56.4 µM (inactive)
GI50 (MDA-N): > 100 µM (inactive)
GI50 (SK-MEL-5): 44 µM (inactive)
GI50 (MDA-MB-231): > 100 µM (inactive)
GI50 (CAKI-1): 34.4 µM (inactive)
GI50 (SN12C): > 100 µM (inactive)
GI50 (UO-31): 6.55 µM (inactive)
GI50 (IGROV-1): 29.9 µM (inactive)
GI50 (TK-10): > 100 µM (inactive)
GI50 (SW-620): > 100 µM (inactive)
GI50 (SNB-75): > 100 µM (inactive)
GI50 (SR): 43.7 µM (inactive)
GI50 (MDA-MB-435): 73.5 µM (inactive)
GI50 (HCC 2998): > 100 µM (inactive)
GI50 (Hs-578T): 24.1 µM (inactive)
GI50 (HL-60): 37.1 µM (inactive)
GI50 (ACHN): > 100 µM (inactive)
GI50 (M14): > 100 µM (inactive)
GI50 (SF-295): 41.6 µM (inactive)
GI50 (U-251): 57.7 µM (inactive)
GI50 (RXF 393): > 100 µM (inactive)
GI50 (KM12): 89.1 µM (inactive)
GI50 (786-0): > 100 µM (inactive)
GI50 (HCT-116): > 100 µM (inactive)
GI50 (SNB-19): 64.6 µM (inactive)
GI50 (OVCAR-5): > 100 µM (inactive)
GI50 (UACC-257): > 100 µM (inactive)
GI50 (HOP-62): > 100 µM (inactive)
GI50 (K562): 56.2 µM (inactive)
GI50 (RPMI-8226): 32.6 µM (inactive)
GI50 (Malme-3M): 28.4 µM (inactive)
GI50 (NCI/ADR-RES): 57.8 µM (inactive)
GI50 (UACC-62): 69.2 µM (inactive)
GI50 (OVCAR-4): 76.4 µM (inactive)
GI50 (DU-145): 24.2 µM (inactive)
GI50 (COLO 205): 52.4 µM (inactive)
GI50 (T47D): 19.3 µM (inactive)
GI50 (SK-OV-3): > 100 µM (inactive)
GI50 (NCI-H23): 58.7 µM (inactive)
GI50 (OVCAR-8): 85.3 µM (inactive)
GI50 (SF-268): 71.6 µM (inactive)
GI50 (LOX IMVI): 67.5 µM (inactive)
GI50 (NCI-H226): 36.3 µM (inactive)
GI50 (MCF7): > 100 µM (inactive)
GI50 (A498): > 100 µM (inactive)
GI50 (EKVX): 23.4 µM (inactive)
GI50 (SK-MEL-2): > 100 µM (inactive)
GI50 (A549): > 100 µM (inactive)
GI50 (OVCAR-3): 31.3 µM (inactive)
GI50 (HCT-15): 51.3 µM
GI50 (NCI-H522): 17.6 µM (inactive)
GI50 (CCRF-CEM): 26.5 µM (inactive)
GI50 (HOP-92): 22.8 µM (inactive)
GI50 (MOLT-4): 44.2 µM (inactive)
GI50 (SK-MEL-28): > 100 µM (inactive)
GI50 (HT-29): > 100 µM (inactive)
